Measurements from patent US10647690B2, “2,3-epoxy succinyl derivative, preparation method and use thereof” (Institute of Pharmacology and Toxicology Academy of …, priority 2016, dated 2020).
Like-named read-outs stand apart in the source and are kept apart here.

Target: T1, Cathepsin K (Homo sapiens, UniProt P43235)
T1 construct: purchased Biovision K150-100
T1 sequence (P43235 115-329): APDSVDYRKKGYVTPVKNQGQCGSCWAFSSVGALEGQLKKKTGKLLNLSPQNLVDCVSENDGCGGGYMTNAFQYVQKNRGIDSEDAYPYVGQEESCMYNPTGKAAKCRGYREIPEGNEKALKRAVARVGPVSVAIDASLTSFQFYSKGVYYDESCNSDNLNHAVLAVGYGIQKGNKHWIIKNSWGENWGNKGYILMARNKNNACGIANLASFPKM
Test: Preliminary screening of Cathepsin K (Cathepsin K Inhibitor Screening Kit K150-100, Biovision)
Format: biochemical
Conditions: relative inhibition rate vs 10 μM FF-FMK control
Outline: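 Percent inhibition was derived from kinetic slopes (ΔRFU/Δt, ex 400/em 505 nm, 120 min at 37 °C), normalized between an uninhibited enzyme control and 10 μM FF-FMK. Compounds were added from 100 μM or 10 μM working solutions (10% DMSO) to Cathepsin K and preincubated 15 min at 25 °C before substrate.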

[1] = 1 μM compound, replicate 1, read-out: Inhibition % (1 μM) replicate 1
[2] = 1 μM compound, replicate 2, read-out: Inhibition % (1 μM) replicate 2
[3] = 10 μM compound, replicate 1, read-out: Inhibition % (10 μM) replicate 1
[4] = 10 μM compound, replicate 2, read-out: Inhibition % (10 μM) replicate 2

| Structure (SMILES) | Inhibition % (1 μM) replicate 1 (1 μM compound, replicate 1) [%] | Inhibition % (1 μM) replicate 2 (1 μM compound, replicate 2) [%] | Inhibition % (10 μM) replicate 1 (10 μM compound, replicate 1) [%] | Inhibition % (10 μM) replicate 2 (10 μM compound, replicate 2) [%] | inhibition at 1 µM [1] [%] | inhibition at 1 µM [2] [%] | inhibition at 10 µM [3] [%] | inhibition at 10 µM [4] [%] |
| --- | --- | --- | --- | --- | --- | --- | --- | --- |
| CCOC(=O)[C@H]1O[C@@H]1C(=O)N[C@@H](CC(C)C)C(=O)NCCC(C)C [zxy-37, E64d, reference compound] | 85.73 | 87.75 | 90.96 | 98.34 |  |  |  |  |
| CCOC(=O)[C@H]1O[C@@H]1C(=O)N[C@@H](CCSC)C(=O)NCCCc1ccccc1 [Compound 8, (2s, 3s)-2-ethoxycarbonyl-3-[2-[(s)-4-methylthio-1-carbonyl-1-(3-phenylpropylamino)butane]formylamino]epoxysuccinic acid] |  |  |  |  | 80.5 | 78.9 | 96.9 | 94.1 |
| CCOC(=O)[C@H]1O[C@@H]1C(=O)N[C@@H](CCSC)C(=O)N1CCC(c2ccccc2)CC1 [Compound 13, (2s, 3s)-2-ethoxycarbonyl-3-[2-[(s)-4-methylthio-1-carbonyl-1-(phenylpiperidinyl)butane]formylamino]epoxysuccinic acid] |  |  |  |  | 99.7 | 98.9 | 108 | 106 |
| CCOC(=O)[C@H]1O[C@@H]1C(=O)N[C@@H](CCSC)C(=O)NC(CC)CC [Compound 39, (2s, 3s)-2-ethoxycarbonyl-3-[2-[(s)-4-methylthio-1-carbonyl-1-(1-ethylpropylamino)butane]formylamino]epoxysuccinic acid] |  |  |  |  | 81.5 | 85.2 | 97.3 | 99.5 |
| CCOC(=O)[C@H]1O[C@@H]1C(=O)N[C@@H](CCSC)C(=O)NCCCCc1ccccc1 [Compound 40, (2s, 3s)-2-ethoxycarbonyl-3-[2-[(s)-4-methylthio-1-carbonyl-1-(4-phenylbutylamino)butane]formylamino]epoxysuccinic acid] |  |  |  |  | 85.5 | 89.1 | 91.1 | 94.9 |
| CCCCCCNC(=O)[C@H](CCSC)NC(=O)[C@H]1O[C@@H]1C(=O)OCC [Compound 5, (2s, 3s)-2-ethoxycarbonyl-3-[2-[(s)-4-methylthio-1-carbonyl-1-(hexylamino)butane]formylamino]epoxysuccinic acid] |  |  |  |  | 90.9 | 89.5 | 91.3 | 95.7 |
| CCOC(=O)[C@H]1O[C@@H]1C(=O)N[C@@H](CCSC)C(=O)NCCc1cccc(F)c1 [Compound 34, (2s, 3s)-2-ethoxycarbonyl-3-[2-[(s)-4-methylthio-1-carbonyl-1-(3-fluorophenylethylamino)butane]formylamino]epoxysuccinic acid] |  |  |  |  | 88.6 | 90.8 | 94.4 | 95.7 |
